Laboratory results published in PubChem BioAssay AID1963450 (Molecular Pharmacology Branch, DTP, NCI, 2024).
Several values for one entry are separate records, joined by “and”; a condition that tells them apart may be missing. Equal entries are not always repeated.

Tested on: 556581-035-R-J1-PDC complex spheroid growth
Test: Anticancer human tumor 556581-035-R-J1-PDC patient-derived ovarian carcinoma cell line growth inhibition [Asc]
Settings: for viability, T/C: stronger effect = lower value
Procedure, shortened: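 Tumor cells were grown as complex spheroids with human endothelial cells (HUVEC) and human mesenchymal stem cells as stroma. Agents were tested alone and in combination, in half-log steps down from the clinical Cmax, or from 10 microM where Cmax was unknown.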

[1] = curve of first compound, second compound 0.1 µM
[2] = curve of first compound, second compound 0.316 µM
[3] = curve of first compound, second compound 1 µM
[4] = second compound 0.1 µM, first compound 0.00316 µM
[5] = second compound 0.1 µM, first compound 0.01 µM
[6] = second compound 0.1 µM, first compound 0.0316 µM
[7] = second compound 0.1 µM, first compound 0.1 µM
[8] = second compound 0.1 µM, first compound 0.316 µM
[9] = second compound 0.1 µM, first compound 1 µM
[10] = second compound 0.316 µM, first compound 0.00316 µM
[11] = second compound 0.316 µM, first compound 0.01 µM
[12] = second compound 0.316 µM, first compound 0.0316 µM
[13] = second compound 0.316 µM, first compound 0.1 µM
[14] = second compound 0.316 µM, first compound 0.316 µM
[15] = second compound 0.316 µM, first compound 1 µM
[16] = second compound 1 µM, first compound 0.00316 µM
[17] = second compound 1 µM, first compound 0.01 µM
[18] = second compound 1 µM, first compound 0.0316 µM
[19] = second compound 1 µM, first compound 0.1 µM
[20] = second compound 1 µM, first compound 0.316 µM
[21] = second compound 1 µM, first compound 1 µM
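Further: spheroids exposed to agents for 7 days before viability read.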

IC50 [1]	IC50 [2]	IC50 [3]	SMILES	viability, T/C [4]	viability, T/C [5]	viability, T/C [6]	viability, T/C [7]	viability, T/C [8]	viability, T/C [9]	viability, T/C [10]	viability, T/C [11]	viability, T/C [12]	viability, T/C [13]	viability, T/C [14]	viability, T/C [15]	viability, T/C [16]	viability, T/C [17]	viability, T/C [18]	viability, T/C [19]	viability, T/C [20]	other results
339 nM	318 nM	251 nM	CCN1CCN(Cc2ccc(Nc3ncc(F)c(-c4cc(F)c5nc(C)n(C(C)C)c5c4)n3)nc2)CC1 + CNC(C)C(=O)NC1CN(S(=O)(=O)c2cccc(S(=O)(=O)N3CCC4CCC(C(=O)NC(c5ccccc5)c5ccccc5)N4C(=O)C(NC(=O)C(C)NC)C3)c2)CCC2CCC(C(=O)NC(c3ccccc3)c3ccccc3)N2C1=O	73.6%	79.3%	78.8%	65.4%	51.6%	44%	84.3%	82.8%	86.5%	57.8%	56%	37.6%	78.2%	82.8%	82.7%	56.2%	51.7%	IC50 (curve of first compound, second compound 0.01 µM): > 1000 nM; IC50 (curve of first compound, second compound 0.0316 µM): > 1000 nM; viability, T/C (second compound 0.01 µM, first compound 0.00316 µM): 94.7%; viability, T/C (second compound 0.01 µM, first compound 0.01 µM): 97.4%; viability, T/C (second compound 0.01 µM, first compound 0.0316 µM): 67.4%; viability, T/C (second compound 0.01 µM, first compound 0.1 µM): 73.6%; viability, T/C (second compound 0.01 µM, first compound 0.316 µM): 78.5%; viability, T/C (second compound 0.01 µM, first compound 1 µM): 72.2%; viability, T/C (second compound 0.0316 µM, first compound 0.00316 µM): 87.5%; viability, T/C (second compound 0.0316 µM, first compound 0.01 µM): 88.7%; viability, T/C (second compound 0.0316 µM, first compound 0.0316 µM): 83%; viability, T/C (second compound 0.0316 µM, first compound 0.1 µM): 85.7%; viability, T/C (second compound 0.0316 µM, first compound 0.316 µM): 75.5%; viability, T/C (second compound 0.0316 µM, first compound 1 µM): 56.2%; viability, T/C [21]: 33%
			CNC(C)C(=O)NC1CN(S(=O)(=O)c2cccc(S(=O)(=O)N3CCC4CCC(C(=O)NC(c5ccccc5)c5ccccc5)N4C(=O)C(NC(=O)C(C)NC)C3)c2)CCC2CCC(C(=O)NC(c3ccccc3)c3ccccc3)N2C1=O (stereo unspecified)																		viability, T/C (compound 0.00316 µM): 96.2% and 82.3% and 87.2%; viability, T/C (compound 0.0316 µM): 89.3% [middle of 14 runs]; viability, T/C (compound 0.316 µM): 74.3% [middle of 14 runs]; IC50 (compound alone, run of 10/24/2022): > 1000 nM; IC50 (compound alone, run of 11/15/2022): > 1000 nM; IC50 (curve of compound): > 1000 nM
46.9 nM	28.4 nM	18.9 nM	COc1c(OCCCN2CCOCC2)ccc2c3n(c(=NC(=O)c4cnc(N)nc4)nc12)CCN3 + Cc1c(S(C)(=O)=O)c(-c2cc(F)cc(N3CCN(c4ccc(NS(=O)(=O)c5ccc(NC(CCN6CCC(C(=O)OCCCP(=O)(O)O)CC6)CSc6ccccc6)c(S(=O)(=O)C(F)(F)F)c5)cc4)CC3)c2)c(-c2ccc(Cl)cc2)n1C(C)C	71%	67.5%	42.1%	51.2%	29.9%	10.1%	75.6%	56.6%	44.4%	47.9%	16.4%	10.5%	57.9%	61.3%	41.5%	27.7%	14.2%	IC50 (curve of first compound, second compound 3.16 µM): 10.5 nM; IC50 (curve of first compound, second compound 10 µM): 3.16 nM; viability, T/C [21]: 9.33%; viability, T/C (second compound 3.16 µM, first compound 0.00316 µM): 59%; viability, T/C (second compound 3.16 µM, first compound 0.01 µM): 50.5%; viability, T/C (second compound 3.16 µM, first compound 0.0316 µM): 41.7%; viability, T/C (second compound 3.16 µM, first compound 0.1 µM): 29%; viability, T/C (second compound 3.16 µM, first compound 0.316 µM): 23.9%; viability, T/C (second compound 3.16 µM, first compound 1 µM): 9.13%; viability, T/C (second compound 10 µM, first compound 0.00316 µM): 48.7%; viability, T/C (second compound 10 µM, first compound 0.01 µM): 57.3%; viability, T/C (second compound 10 µM, first compound 0.0316 µM): 34%; viability, T/C (second compound 10 µM, first compound 0.1 µM): 53.7%; viability, T/C (second compound 10 µM, first compound 0.316 µM): 11.1%; viability, T/C (second compound 10 µM, first compound 1 µM): 19.6%
